Results on 13 compounds are retold here after US20180243317A1, “COMPOSITIONS COMPRISING A PI3K INHIBITOR AND AN HDAC INHIBITOR” (KARUS THERAPEUTICS LTD, priority 2015, published 2018).

The nature of data set [1]: Rodent pharmacokinetics: oral bioavailability and clearance in male mice. Also noted: species or system mouse. The note with it: in vivo. How it is done:
Formulation: 10% DMSO, 90% Saline
Dosing: 10 mg/kg P.O. and 5 mg/kg I.V.
Animals in Group 1 were administered intravenously with Example B solution formulation in 20% Propylene Glycol, 50% of PEG 400 and 30% of (20% HPβCD in water) via tail vein at a dose of 3 mg/kg.
Animals in Group 2 were administered with oral solution formulation of Example B in 20% Propylene Glycol, 50% of PEG 400 and 30% of (20% HPβCD in water) at a dose of 10 mg/kg;
Dosing: 10 mg/kg P.O. and 3 mg/kg I.V.
Animals in Group 1 were administered intravenously with Example G solution formulation in 5% NMP, 5% solutol HS-15 in 90% HPβCD solution (20% HPβCD in RO water) at 3 mg/kg dose.
Animals in Group 2 were administered orally with 10 mg/kg solution formulation of Example G in 5% NMP, 5% solutol HS-15 in 90% HPβCD solution (20% HPβCD in RO water)

The target in the next data set is T1, Human HDAC1 (Homo sapiens, UniProt Q13547).
T1 construct: full length with C-terminal His-tag and C-terminal FLAG-tag; His-tag (C); FLAG-tag (C); made in house; host or cells: baculovirus expression system
Description: HDAC biochemical assay with acetylated AMC-labeled peptide substrate. The note with it: read-out: IC50 HDAC 1. How it is done: (§1) Activity against all zinc-dependent HDACs 1 to 11 was assessed by using an acetylated AMC-labeled peptide substrate. The substrate RHKKAc was used for all class I and IIb HDACs; for HDAC8, the substrate used was RHKAcKAc. […] All assays were based on the AMC-labeled substrate and developer combination.
(§2) The protocol involved a two-step reaction: first, the substrate with the acetylated lysine side chain is incubated with a sample containing HDAC activity, to produce the deacetylated products, which are then digested in the second step by the addition of developer to produce the fluorescent signal proportional to the amount of deacetylated substrates.
Human HDAC1 (GenBank Accession No. NM_004964), full length with C-terminal His-tag and C-terminal FLAG-tag, MW=56 kDa, expressed in baculovirus expression system.
(§3) Before use, 1 mg/mL BSA and DMSO are added.
(§4) Incubate for 2 hours at 30° C.
(§5) Fluorescence background signal is then subtracted from compound data signal.
(§6) Stage 1: Deacetylation of substrate by incubation of HDAC enzymes with compounds
(§7) Stage 2: Development by addition of Developer to digest the deacetylated substrate, and generate the fluorescent color; Detection: 360/460 Ex/Em

The next data set addresses T2, Recombinant human HDAC6 (Homo sapiens, UniProt Q9UBN7).
T2 construct: GST (N); made in house; host or cells: Sf9 insect cells (baculovirus)
T2 sequence (Q9UBN7 1-1215): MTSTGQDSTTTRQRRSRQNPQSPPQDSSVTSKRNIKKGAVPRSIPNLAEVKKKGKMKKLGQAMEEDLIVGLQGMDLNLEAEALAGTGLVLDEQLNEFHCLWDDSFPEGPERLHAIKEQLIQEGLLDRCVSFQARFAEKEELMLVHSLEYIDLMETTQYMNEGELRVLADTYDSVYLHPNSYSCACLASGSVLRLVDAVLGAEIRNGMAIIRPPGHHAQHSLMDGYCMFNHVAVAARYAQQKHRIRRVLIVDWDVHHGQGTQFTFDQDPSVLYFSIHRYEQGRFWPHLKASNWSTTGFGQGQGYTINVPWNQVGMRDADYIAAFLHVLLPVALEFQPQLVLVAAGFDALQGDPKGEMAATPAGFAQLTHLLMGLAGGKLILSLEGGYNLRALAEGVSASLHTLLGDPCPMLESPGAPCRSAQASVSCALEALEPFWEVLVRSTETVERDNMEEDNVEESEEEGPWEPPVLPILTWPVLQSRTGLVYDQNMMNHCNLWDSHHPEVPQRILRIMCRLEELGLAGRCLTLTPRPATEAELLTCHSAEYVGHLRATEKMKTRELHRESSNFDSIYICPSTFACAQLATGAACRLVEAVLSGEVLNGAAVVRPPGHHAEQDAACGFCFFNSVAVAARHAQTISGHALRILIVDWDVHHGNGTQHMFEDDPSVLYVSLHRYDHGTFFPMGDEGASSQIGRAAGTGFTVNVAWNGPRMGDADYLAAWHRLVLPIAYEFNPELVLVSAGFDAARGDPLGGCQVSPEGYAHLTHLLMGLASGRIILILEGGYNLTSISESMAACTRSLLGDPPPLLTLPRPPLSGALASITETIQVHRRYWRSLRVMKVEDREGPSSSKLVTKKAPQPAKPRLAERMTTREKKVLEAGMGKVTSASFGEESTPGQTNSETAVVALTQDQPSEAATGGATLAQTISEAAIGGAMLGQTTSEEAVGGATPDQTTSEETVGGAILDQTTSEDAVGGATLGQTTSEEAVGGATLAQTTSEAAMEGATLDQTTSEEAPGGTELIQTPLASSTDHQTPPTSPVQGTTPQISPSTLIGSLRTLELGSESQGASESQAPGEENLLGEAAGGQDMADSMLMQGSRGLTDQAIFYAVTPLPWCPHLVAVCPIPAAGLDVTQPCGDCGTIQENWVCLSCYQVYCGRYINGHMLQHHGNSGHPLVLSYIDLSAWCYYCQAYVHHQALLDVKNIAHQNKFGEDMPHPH
The description is as above. The note with it: read-out: IC50 HDAC 6. How it is done: as §1, §2
Human HDAC5 (GenBank Accession No. NM_005474), full length with N-terminal GST tag, MW=150 kDa, expressed in baculovirus expression system. Recombinant human HDAC6 (GenBank Accession No. BC069243), full length, MW=180 kDa, was expressed by baculovirus in Sf9 insect cells using an N-terminal GST tag.
as §3, §4, §5, §6, §7

Data set [2] relates to panel of 94 cancer cell lines. Description: Potentiation study #2015030003, SRB proliferation assay. In kind it is cell-based. The note with it: 72 h. Here is the method: (§8) 48 hours later, cells were treated with 10μL media containing compound at 20× final concentration (resulting in a final DMSO concentration of 0.1%). […] In addition, control plates with cells not exposed to compound were analyzed after 48 hours (time zero, Tz). […] Briefly—after compound treatment, media was aspirated and cells were fixed by addition of 10% TCA.
(§9) Average background optical density (derived from plates and wells containing medium without cells) was subtracted from the optical density values from all controls and treated cells.
(In general: Sulforhodamine B stains cellular protein and so reports cell mass.)

For data set [3], the system named is MINO cells (mantle cell lymphoma). Nature of the data set: SRB proliferation assay (potentiation and concentration matrix studies). The format is cell-based, human. The note with it: in the presence of 100 nM Compound A, GI50 shift, z-score and/or HSA analysis. Here is the method:
(§10) Cell lines marked with ‡ were also tested in study #2015030004.
as §8, §9

The test system of data set [4] is PC-3 cells (prostate adenocarcinoma). The data set is described as above. In kind it is cell-based, human. The note with it: PC-3, in the presence of 100 nM Compound A; GI50 shift, z-score and/or HSA analysis. How it is done:
as §10, §8, §9

For data set [5], the system named is LoVo cells (colorectal adenocarcinoma). Description: SRB proliferation assay (potentiation study). The format is cell-based, human. The note with it: in the presence of 100 nM Compound A, GI50 shift, z-score and/or HSA analysis. How it is done:
as §8, §9

The structures appear in SMILES notation. Where two headings read alike, the source gives them in different places. Bounds are passed on as bounds.

T1 sequence (Q13547 whole entry): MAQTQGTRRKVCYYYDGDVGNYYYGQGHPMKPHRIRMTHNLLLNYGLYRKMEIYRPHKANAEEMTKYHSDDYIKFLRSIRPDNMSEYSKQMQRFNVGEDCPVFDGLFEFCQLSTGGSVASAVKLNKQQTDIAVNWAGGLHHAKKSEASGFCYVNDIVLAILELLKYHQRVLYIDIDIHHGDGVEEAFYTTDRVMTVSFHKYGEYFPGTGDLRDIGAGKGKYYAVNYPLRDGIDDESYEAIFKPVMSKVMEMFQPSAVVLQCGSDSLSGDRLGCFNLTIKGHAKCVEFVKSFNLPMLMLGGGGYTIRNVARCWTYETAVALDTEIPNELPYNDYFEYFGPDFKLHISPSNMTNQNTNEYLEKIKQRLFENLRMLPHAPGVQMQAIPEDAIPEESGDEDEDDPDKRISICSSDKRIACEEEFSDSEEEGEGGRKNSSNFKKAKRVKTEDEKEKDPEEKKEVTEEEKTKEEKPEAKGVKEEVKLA

In data set [1] (male, CD1, mouse), `c1cc(-c2nc(N3CCOCC3)c3oc4ncc(CN5C[C@@H]6C[C@H]5CO6)cc4c3n2)c2cc[nH]c2c1` [A] came in with an F of 73.77%. Further, the clearance was determined as 21.12 mL/min/kg in data set [1] (male, CD1, mouse, iv, 5 mg/kg) and 21 mL/min/kg in data set [1] (male, mouse, iv). The “Oral Bioavailability (F)” value in data set [1] (male, mouse, po, 10 mg/kg) came to 74.
Usually AUC(0-t) stands for exposure summed from dosing to a finite time, without extrapolation to infinity. For orientation: Cmax means the maximum level reached in the sampled fluid or tissue. In the case of `c1cc(-c2nc(N3CCOCC3)c3oc4ncc(CN5CCC6(CC5)COC6)cc4c3n2)c2cc[nH]c2c1` [B], the F in data set [1] (mouse) was found to be 74%. In data set [1] (mouse, iv, 3 mg/kg), the AUC(0-t) turned out to be 1510 ng·h/mL, the AUCinf is 1512.20 ng·h/mL, the Cmax turned out to be 621.42 ng/mL and the Vss was found to be 5.51 L/kg. In data set [1] (mouse, iv, 3 mg/kg), this compound showed a clearance of 33.06 mL/min/kg and a t1/2 of 1.23 h. Further, in data set [1] (mouse, po, 10 mg/kg), the AUC(0-t) stood at 3730 ng·h/mL and the AUCinf is 4103.86 ng·h/mL.
One may read the IC50 as the concentration that gives 50% inhibition. For `O=C(NO)c1ccc(CN(c2cnccn2)c2cnccn2)nc1` [Example II, 6-{[Bis(pyrazin-2-yl)amino]methyl}-N-hydroxypyridine-3-carboxamide], the results for the IC50 on Human HDAC1 and at Recombinant human HDAC6 were 1 to 10 µM and no more than 0.5 µM, respectively.
The corresponding values for `Cn1ccc(N(Cc2ccc(C(=O)NO)cc2)c2cc(-c3ccc(F)cc3)ccn2)n1` [Example Q, 4-(((4-(4-Fluorophenyl)pyridin-2-yl)(1-methyl-1H-pyrazol-3-yl)amino)methyl)-N-hydroxybenzamide] are 1 to 10 µM and no more than 0.5 µM.
The term GI50 denotes the concentration giving 50% growth inhibition. As to `O=C(NO)c1ccc(CN(c2cnccn2)c2cnccn2)cc1` [Example GG, 4-{[Bis(pyrazin-2-yl)amino]methyl}-N-hydroxybenzamide], the GI50 is 4.7 to 33 µM in data set [2] (Compound GG alone, read-out: GI50 values for the individual cell lines (range)); 17.3 µM in data set [2] (Compound GG alone, read-out: mean (±s.e.m) GI50 value across the whole panel); 1.7 to 35 µM in data set [2] (Compound GG in the presence of 100 nM Compound A, read-out: GI50 values for the individual cell lines (range)); 14.1 µM in data set [2] (Compound GG in the presence of 100 nM Compound A, read-out: mean (±s.e.m) GI50 value across the whole panel). The “potentiation of the pharmacological activity of Compound GG by Compound A” value in data set [3], in data set [4] and in data set [5] was “potentiate” throughout.
Turning to `c1cc(-c2nc(N3CCOCC3)c3oc4ncc(CN5CCCCC5)cc4c3n2)c2cc[nH]c2c1` [Example I in WO2011/021038, reference compound], the “Oral Bioavailability (F)” value in data set [1] (male, mouse, po, 10 mg/kg) turned out to be 28.
With `c1cc(-c2nc(N3CCOCC3)c3oc4ncc(CN5CCC56COC6)cc4c3n2)c2cc[nH]c2c1` [G], the F in data set [1] (male, Balb/c, mouse) is given as 30%. Also, the clearance in data set [1] (male, mouse, summary table, mice, IV, read-out: Clearance) was 26 mL/min/kg.
Take `O=C(NO)c1ccc(CN(c2ccc(F)cn2)c2nc(C(F)(F)F)ns2)cc1` [Example T, 4-(((5-Fluoropyridin-2-yl)(3-(trifluoromethyl)-1,2,4-thiadiazol-5-yl)amino)methyl)-N-hydroxybenzamide]: the half-maximal inhibitory concentration (IC50) on Human HDAC1 was greater than 10 µM; on Recombinant human HDAC6, 1 to 10 µM.
Taken in the same sequence, the figures for `O=C(NO)c1ccc(CN(c2ccccn2)c2nc(C(F)(F)F)ns2)cc1` [Example W, N-Hydroxy-4-((pyridin-2-yl(3-(trifluoromethyl)-1,2,4-thiadiazol-5-yl)amino)methyl)benzamide] were greater than 10 µM and no more than 0.5 µM.
The corresponding values for `COc1cccnc1N(Cc1ccc(C(=O)NO)cc1)c1cnccn1` [Example JJ, N-Hydroxy-4-{[(3-methoxypyridin-2-yl)(pyrazin-2-yl)amino]methyl}benzamide] are 1 to 10 µM and no more than 0.5 µM.
Taken in the same sequence, the figures for `COc1cccnc1N(Cc1ccc(C(=O)NO)cc1)c1ccc(N2CCOCC2)cn1` [Example Z, N-Hydroxy-4-(((3-methoxypyridin-2-yl)(5-morpholinopyridin-2-yl)amino)methyl)benzamide] were greater than 10 µM and no more than 0.5 µM.
Consider `O=C(NO)c1ccc(CN(c2ccccn2)c2nc3ccccc3o2)cc1` [Example I, 4-((Benzo[d]oxazol-2-yl(pyridin-2-yl)amino)methyl)-N-hydroxybenzamide], for which the values for the IC50 at Human HDAC1 and on Recombinant human HDAC6 were 1 to 10 µM and no more than 0.5 µM, respectively.
As for `Cc1nsc(N(Cc2ccc(C(=O)NO)cc2)c2ccc(F)cn2)n1` [Example R, 4-(((5-Fluoropyridin-2-yl)(3-methyl-1,2,4-thiadiazol-5-yl)amino)methyl)-N-hydroxybenzamide], the IC50 was greater than 10 µM at Human HDAC1 and no more than 0.5 µM on Recombinant human HDAC6.
